Assay results published in patent US20240109903A1, “SUBSTITUTED HETEROCYCLES FOR TREATING CANCER” (Northwestern University, priority 2022, published 2024).

Experiments:
full NCI 60 cell panel = assay: NCI 60 Cell One-dose screen; format: cell-based, human; conditions: single high dose 10^−5 M, NCI 60 panel
From the text: Compounds were submitted to the NCI 60 Cell screen and tested at a single high dose (10^−5 M) in the full NCI 60 cell panel (see the following reference for details of using NCI 60 human tumor cell lines for screening anticancer drugs: Shoemaker R H. The NCI60 human tumor cell line anticancer drug screen. Nature Rev Cancer 2006; 6: 813-23). The One-dose data is reported as a mean graph of the percent growth of treated cells. The number reported for the One-dose assay is growth relative to the no-drug control, and relative to the time zero number of cells. This allows detection of both growth inhibition (values between 0 and 100) and lethality (values less than 0). For example, a value of 100 means no growth inhibition. A value of 40 would mean 60% growth inhibition. A value of 0 means no net growth over the course of the experiment. A value of −40 would mean 40% lethality. A value of −100 means all cells are dead. FIGS. 1-8 show the mean graph of percent growth against the NCI-60 cell panel for NUCC-0226674, NUCC-0226679, NUCC-0226680, NUCC-0226683, NUCC-0226689, NUCC-0226694, NUCC-0226695, and NUCC-0226698.

A549/ATCC = assay: NCI 60 five-dose screen A549/ATCC; format: cell-based; conditions: Homo sapiens, five-dose
EKVX = assay: NCI 60 five-dose screen EKVX; format: cell-based; conditions: Homo sapiens, five-dose
HOP-92 = assay: NCI 60 five-dose screen HOP-92; format: cell-based; conditions: Homo sapiens, five-dose
NCI-H322M = assay: NCI 60 five-dose screen NCI-H322M; format: cell-based; conditions: Homo sapiens, five-dose
NCI-H460 = assay: NCI 60 five-dose screen NCI-H460; format: cell-based; conditions: Homo sapiens, five-dose
NCI-H522 = assay: NCI 60 five-dose screen NCI-H522; format: cell-based; conditions: Homo sapiens, five-dose
COLO 205 = assay: NCI 60 five-dose screen COLO 205; format: cell-based; conditions: Homo sapiens, five-dose
SW-620 = assay: NCI 60 five-dose screen SW-620; format: cell-based; conditions: Homo sapiens, five-dose
SF-295 = assay: NCI 60 five-dose screen SF-295; format: cell-based; conditions: Homo sapiens, five-dose
SNB-75 = assay: NCI 60 five-dose screen SNB-75; format: cell-based; conditions: Homo sapiens, five-dose
LOX IMVI = assay: NCI 60 five-dose screen LOX IMVI; format: cell-based; conditions: Homo sapiens, five-dose
MDA-MB-435 = assay: NCI 60 five-dose screen MDA-MB-435; format: cell-based; conditions: Homo sapiens, five-dose
SK-MEL-2 = assay: NCI 60 five-dose screen SK-MEL-2; format: cell-based; conditions: Homo sapiens, five-dose
NCI/ADR-RES = assay: NCI 60 five-dose screen NCI/ADR-RES; format: cell-based; conditions: Homo sapiens, five-dose
786-0 = assay: NCI 60 five-dose screen 786-0; format: cell-based; conditions: Homo sapiens, five-dose
ACHN = assay: NCI 60 five-dose screen ACHN; format: cell-based; conditions: Homo sapiens, five-dose
CAKI-1 = assay: NCI 60 five-dose screen CAKI-1; format: cell-based; conditions: Homo sapiens, five-dose
SN12C = assay: NCI 60 five-dose screen SN12C; format: cell-based; conditions: Homo sapiens, five-dose
UO-31 = assay: NCI 60 five-dose screen UO-31; format: cell-based; conditions: Homo sapiens, five-dose
PC-3 = assay: NCI 60 five-dose screen PC-3; format: cell-based; conditions: Homo sapiens, five-dose
BT-549 = assay: NCI 60 five-dose screen BT-549; format: cell-based; conditions: Homo sapiens, five-dose
T-47D = assay: NCI 60 five-dose screen T-47D; format: cell-based; conditions: Homo sapiens, T47D, five-dose
MDA-MB-468 = assay: NCI 60 five-dose screen MDA-MB-468; format: cell-based; conditions: Homo sapiens, five-dose
[1] = read-out: LC50 (the source's name) (converted)

FC(F)(F)c1cc2c(Cl)ncnc2n1CCN1CCCCC1 [NUCC-0226679]
growth inhibition in the One-Dose Screen (full NCI 60 cell panel): significant growth inhibition | GI50 (A549/ATCC): 79.4 µM | IC50 (A549/ATCC): 100 µM | IC (TGI) (A549/ATCC): 100 µM | CC50 (A549/ATCC; [1]): ≥ 100 µM | GI50 (EKVX): 16.2 µM | IC50 (EKVX): 51.3 µM | IC (TGI) (EKVX): 85.1 µM | CC50 (EKVX; [1]): ≥ 100 µM | GI50 (HOP-92): 19.5 µM | IC50 (HOP-92): 63.1 µM | IC (TGI) (HOP-92): 53.7 µM | CC50 (HOP-92; [1]): ≥ 100 µM | GI50 (NCI-H322M): 15.5 µM | IC50 (NCI-H322M): 36.3 µM | IC (TGI) (NCI-H322M): 43.7 µM | CC50 (NCI-H322M; [1]): ≥ 100 µM | GI50 (NCI-H460): 18.2 µM | IC50 (NCI-H460): 26.3 µM | IC (TGI) (NCI-H460): 50.1 µM | CC50 (NCI-H460; [1]): ≥ 100 µM | GI50 (NCI-H522): 1.7 µM | IC50 (NCI-H522): 3.24 µM | IC (TGI) (NCI-H522): 3.47 µM | GI50 (COLO 205): 52.5 µM | IC50 (COLO 205): 100 µM | IC (TGI) (COLO 205): 100 µM | CC50 (COLO 205; [1]): ≥ 100 µM | GI50 (SW-620): 11.2 µM | IC50 (SW-620): 15.8 µM | IC (TGI) (SW-620): 28.8 µM | CC50 (SW-620; [1]): 74.1 µM | GI50 (SF-295): 22.4 µM | IC50 (SF-295): 40.7 µM | IC (TGI) (SF-295): 87.1 µM | CC50 (SF-295; [1]): ≥ 100 µM | GI50 (SNB-75): 10.5 µM | IC50 (SNB-75): 22.9 µM | IC (TGI) (SNB-75): 22.4 µM | CC50 (SNB-75; [1]): 47.9 µM | GI50 (LOX IMVI): 1.7 µM | IC50 (LOX IMVI): 2.95 µM | IC (TGI) (LOX IMVI): 3.09 µM | CC50 (LOX IMVI; [1]): 5.75 µM | GI50 (MDA-MB-435): 13.2 µM | IC50 (MDA-MB-435): 21.9 µM | IC (TGI) (MDA-MB-435): 30.2 µM | CC50 (MDA-MB-435; [1]): 67.6 µM | GI50 (SK-MEL-2): 16.6 µM | IC50 (SK-MEL-2): 33.9 µM | IC (TGI) (SK-MEL-2): 33.1 µM | CC50 (SK-MEL-2; [1]): 66.1 µM | GI50 (NCI/ADR-RES): 24 µM | IC50 (NCI/ADR-RES): 42.7 µM | IC (TGI) (NCI/ADR-RES): 64.6 µM | CC50 (NCI/ADR-RES; [1]): ≥ 100 µM | GI50 (786-0): 39.8 µM | IC50 (786-0): 66.1 µM | IC (TGI) (786-0): 100 µM | CC50 (786-0; [1]): ≥ 100 µM | GI50 (ACHN): 6.46 µM | IC50 (ACHN): 17 µM | IC (TGI) (ACHN): 100 µM | CC50 (ACHN; [1]): ≥ 100 µM | GI50 (CAKI-1): 25.1 µM | IC50 (CAKI-1): 47.9 µM | IC (TGI) (CAKI-1): 100 µM | CC50 (CAKI-1; [1]): ≥ 100 µM | GI50 (SN12C): 19.5 µM | IC50 (SN12C): 34.7 µM | IC (TGI) (SN12C): 100 µM | CC50 (SN12C; [1]): ≥ 100 µM | GI50 (UO-31): 1.74 µM | IC50 (UO-31): 3.31 µM | IC (TGI) (UO-31): 3.55 µM | CC50 (UO-31; [1]): 7.41 µM | GI50 (PC-3): 15.1 µM | IC50 (PC-3): 25.7 µM | IC (TGI) (PC-3): 47.9 µM | CC50 (PC-3; [1]): ≥ 100 µM | GI50 (BT-549): 15.1 µM | IC50 (BT-549): 30.2 µM | IC (TGI) (BT-549): 29.5 µM | CC50 (BT-549; [1]): 58.9 µM | GI50 (T-47D): 21.9 µM | IC50 (T-47D): 70.8 µM | IC (TGI) (T-47D): 100 µM | CC50 (T-47D; read-out: LC50 (the source's name)): ≥ 100 µM | GI50 (MDA-MB-468): 3.02 µM | IC50 (MDA-MB-468): 18.2 µM | IC (TGI) (MDA-MB-468): 9.33 µM | CC50 (MDA-MB-468; [1]): 38.9 µM
